US20020010205A1, “N-linked sulfone of heterocyclic thioester hair growth compositions and uses” (GPI NIL HOLDINGS, INC., priority 1998, published 2002)
“Also recorded” adds a separate entry of the source.

Tests used:
C57 black 6 mice [1] = assay: In vivo hair generation test, Experiment A (shaved C57 black 6 mice, topical); settings: 30 μM topical in 20% propylene glycol, 3 applications over 5 days, after six weeks
Source text: Care was taken not to nick or cause abrasion to the underlaying dermal layers. The animals were in anagen growth phase, as indicated by the pinkish color of the skin. […] Hair growth was quantitated by the percent of shaved area covered by new hair growth during this time period.

FKBP12 = FKBP12 (Homo sapiens, UniProt P62942); assay: Ki test procedure: inhibition of peptidyl-prolyl isomerase (rotamase) activity, chymotrypsin-coupled assay; format: biochemical; settings: apparent Ki, FKBP rotamase inhibition
Source text: The inhibition of the prolyl peptidyl cis-trans isomerase activity of FKBP may be measured as an indicator of this affinity.
Inhibition of the peptidyl-prolyl isomerase (rotamase) activity of the compounds used in the inventive methods and pharmaceutical compositions can be evaluated by known methods described in the literature (Harding et al., Nature, 1989, 341:758-760; Holt et al. J. Am. Chem. Soc., 115:9923-9938). These values are obtained as apparent Ki's and are presented for representative compounds in TABLE I.
The cis-trans isomerization of an alanine-proline bond in a model substrate, N-succinyl-Ala-Ala-Pro-Phe-p-nitroanilide, is monitored spectrophotometrically in a chymotrypsin-coupled assay, which releases para-nitroanilide from the trans form of the substrate. The inhibition of this reaction caused by the addition of different concentrations of inhibitor is determined, and the data is analyzed as a change in first-order rate constant as a function of inhibitor concentration to yield the apparent Ki values.
In a plastic cuvette are added 950 Ml of ice cold assay buffer (25 mM HEPES, pH 7.8, 100 mM NaCl), […] of FKBP (2.5 mM in 10 mM Tris-Cl pH 7.5, 100 mM NaCl, 1 mM dithiothreitol), […] of chymotrypsin (50 mg/ml in 1 mM HCl) and […] of test compound at various concentrations in dimethyl sulfoxide. The reaction is initiated by the addition of 5 mL of substrate (succinyl-Ala-Phe-Pro-Phe-para-nitroanilide, 5 mg/mL in 2.35 mM LiCl in trifluoroethanol).
The absorbance at 390 nm versus time is monitored for 90 seconds using a spectrophotometer and the rate constants are determined from the absorbance versus time data files.

C57 black 6 mice [2] = assay: In vivo hair generation test, Experiment B (shaved C57 Black 6 mice, topical, relative hair growth index); settings: one micromole per milliliter topical, three times per week, 14 days after initiation of treatment
Procedure: Care was taken not to nick or cause abrasion to the underlying dermal layers. The animals were in anagen growth phase when shaved. […] The animals were treated three times per week, and hair growth was evaluated 14 days after initiation of treatment.

[3] = topical, but not oral, application; cited from earlier work

Chain of FKBP12 (P62942 whole entry, species assumed): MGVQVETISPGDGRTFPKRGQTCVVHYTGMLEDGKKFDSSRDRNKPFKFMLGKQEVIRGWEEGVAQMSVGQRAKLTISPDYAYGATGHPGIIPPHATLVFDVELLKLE

| Structure (SMILES) | Ki (FKBP12) | further results |
| --- | --- | --- |
| CCC(C)(C)C(=O)C(=O)N1CCC[C@H]1C(=O)OCCCc1cccnc1 [GPI 1046, 3-(3-pyridyl)-1-propyl (2s)-1-(3,3-dimethyl-1,2-dioxopentyl)-2-pyrrolidinecarboxylate] | – | hair regrowth in shaved area (C57 black 6 mice [1]): essentially complete hair regrowth; also recorded: essentially, complete hair regrowth |
| O=C(SCCCCc1ccccc1)C1CCCCN1S(=O)(=O)Cc1ccccc1 (stereo not shown) [Compound 11] | 51 to 200 nM | – |
| O=C(SCCCCc1ccccc1)C1CCCCN1S(=O)(=O)C1CCCCC1 (stereo not shown) [Compound 14] | 1 to 50 nM | – |
| COc1cc(S(=O)(=O)N2CCCCC2C(=O)SCCCCc2ccccc2)cc(OC)c1OC (stereo not shown) [Compound 13] | 1 to 50 nM | – |
| O=C(SCCC(c1ccccc1)c1ccccc1)C1CCCN1S(=O)(=O)c1ccccc1 (stereo not shown) [Compound 7] | 51 to 200 nM | – |
| Cc1ccc(S(=O)(=O)N2CCCC2C(=O)SCCc2ccccc2)cc1 (stereo not shown) [Compound 3] | 51 to 200 nM | – |
| O=C(SCCc1ccccc1)C1CCCN1S(=O)(=O)Cc1ccccc1 (stereo not shown) [Compound 2] | 51 to 200 nM | – |
| O=C(SCCc1ccccc1)C1CCCN1S(=O)(=O)c1ccccc1 (stereo not shown) [Compound 1] | 1 to 50 nM | – |
| COc1ccc(CCCSC(=O)C2CCCN2S(=O)(=O)c2ccccc2)cc1 [Compound 4, 3-(para-Methoxyphenyl)-1-propylmercaptyl(2S)-N-(benzenesulfonyl)pyrrolidine-2-carboxylate] | 51 to 200 nM | – |
| O=C(SCCCc1ccccc1)[C@@H]1CCCN1S(=O)(=O)Cc1ccccc1 [GPI 1312] | – | hair growth (relative hair growth index, FIG. 5) (C57 black 6 mice [2]): dramatic hair growth |
| O=C(SCCCCc1ccccc1)C1CCCCN1S(=O)(=O)c1ccccc1 (stereo not shown) [Compound 10] | 1 to 50 nM | – |
| Cc1ccc(S(=O)(=O)N2CCCC2C(=O)SCCC(c2ccccc2)c2ccccc2)cc1 (stereo not shown) [Compound 9] | 1 to 50 nM | – |
| Cc1ccc(S(=O)(=O)N2CCCCC2C(=O)SCCCCc2ccccc2)cc1 (stereo not shown) [Compound 12] | 1 to 50 nM | – |
| O=C(SC(CCCc1ccccc1)CCCc1ccccc1)C1CCCCN1S(=O)(=O)Cc1ccccc1 (stereo not shown) [Compound 16] | 51 to 200 nM | – |
| O=C(SC(CCCc1ccccc1)CCCc1ccccc1)C1CCCCN1S(=O)(=O)c1ccccc1 (stereo not shown) [Compound 15] | 1 to 50 nM | – |
| O=C(SCCC(c1ccccc1)c1ccccc1)C1CCCN1S(=O)(=O)Cc1ccccc1 (stereo not shown) [Compound 8] | 1 to 50 nM | – |
| C=CC[C@@H]1/C=C(\C)C[C@H](C)C[C@H](OC)[C@H]2O[C@@](O)(C(=O)C(=O)N3CCCC[C@H]3C(=O)O[C@H](/C(C)=C/[C@@H]3CC[C@@H](O)[C@H](OC)C3)[C@H](C)[C@@H](O)CC1=O)[C@H](C)C[C@@H]2OC [FK506] | – | stimulation of hair growth [3]: stimulates hair growth in a dose-dependent manner |
| COc1ccc(CCCSC(=O)C2CCCN2S(=O)(=O)Cc2ccccc2)cc1 [Compound 5, 3-(para-Methoxyphenyl)-1-propylmercaptyl (2S)-N-(α-toluenesulfonyl)pyrrolidine-2-carboxylate] | 51 to 200 nM | – |
| COc1ccc(CCCSC(=O)C2CCCN2S(=O)(=O)c2ccc(C)cc2)cc1 (stereo not shown) [Compound 6] | 201 to 500 nM | – |
